Here are results for 59 compounds from patent publication US7985755B2, “2,4-diaminoquinazolines for spinal muscular atrophy” (Families of Spinal Muscular Atrophy, priority 2006, dated 2011).

Molecules are shown by their SMILES. pEC50: −log10 of the molar value. Where a name gives a salt, the structure may show the parent alone. A value given as a limit tells only on which side of the number the result lay.

One test relates to SMN2 promoter. The experiment in a line: SMN2 promoter assay in NSC-34 cells (β-lactamase reporter). The test is classed as cell-based, mouse. As to conditions: Mus musculus, Table 1, SMN2 promoter driving β-lactamase, 12 point dose curve, read-out: Promoter Assay EC50. The text has this:
All compounds were screened using an in vitro based SMN2 promoter assay. We used NSC-34 cells, a hybrid cell line between mouse spinal cord cells and mouse neuroblastoma cells. NSC-34 cells harbor an expression plasmid containing a 3.4 kb promoter fragment of the SMN2 gene driving β-lactamase expression.
[…] […] CCF2-AM diffuses across the plasma membrane and is converted into an active β-lactamase substrate by cytoplasmic esterase. […] The fold induction is proportional to the extent of β-lactamase produced and in turn proportional to SMN2 promoter activation for a given compound relative to vehicle (DMSO) control. […] These values are used to rank activities of the compounds and derive structure activity relationship.
Broadly, the pEC50 is the EC50 on a negative log10 scale, so that one unit is a factor of ten. Regarding `Nc1nc(N)c2c(OCC3CCN(Cc4ccc(Cl)cc4)CC3)cccc2n1` [Example-004, 5-[1-(4-Chlorobenzyl)piperidin-4-ylmethoxy]quinazoline-2,4-diamine hydrochloride], the negative-log EC50 (pEC50) was greater than 6.00.

`Nc1nc(N)c2c(OCC3CCN(Cc4ccc(F)c(F)c4)CC3)cccc2n1` [Example-011, 5-[1-(3,4-Difluorobenzyl)piperidin-4-ylmethoxy]quinazoline-2,4-diamine]: the negative-log EC50 (pEC50) is greater than 6.00.

For the compound `Nc1nc(N)c2c(OCC3CCN(C(=O)c4ccccc4F)CC3)cccc2n1` [Example-013, [4-(2,4-Diaminoquinazolin-5-yloxymethyl)piperidin-1-yl](2-fluorophenyl)methanone], the negative-log EC50 (pEC50) was greater than 6.00.

As to `Nc1nc(N)c2c(OCC3CCN(C(=O)c4ccc5ccccc5c4)CC3)cccc2n1` [Example-018, [4-(2,4-Diaminoquinazolin-5-yloxymethyl)piperidin-1-yl]naphthalen-2-yl-methanone], the negative logarithm of the EC50 (pEC50) was greater than 6.00.

For the compound `Cc1ccccc1C(=O)N1CCC(COc2cccc3nc(N)nc(N)c23)CC1` [Example-019, [4-(2,4-Diaminoquinazolin-5-yloxymethyl)piperidin-1-yl]-o-tolylmethanone], the negative logarithm of the EC50 (pEC50) is greater than 6.00.

In the case of `Cc1cccc(C(=O)N2CCC(COc3cccc4nc(N)nc(N)c34)CC2)c1` [Example-020, [4-(2,4-Diaminoquinazolin-5-yloxymethyl)piperidin-1-yl]-m-tolylmethanone], the pEC50 was greater than 6.00.

With `Cc1ccc(C(=O)N2CCC(COc3cccc4nc(N)nc(N)c34)CC2)cc1` [Example-021, [4-(2,4-Diaminoquinazolin-5-yloxymethyl)piperidin-1-yl]-p-tolylmethanone], the pEC50 is greater than 6.00.

`Nc1nc(N)c2c(OCC3CCN(C(=O)c4ccc(F)cc4F)CC3)cccc2n1` [Example-022, [4-(2,4-Diaminoquinazolin-5-yloxymethyl)piperidin-1-yl]-(2,4-difluorophenyl)methanone]: the pEC50 was greater than 6.00.

On to `Nc1nc(N)c2c(OCC3CCN(C(=O)c4ccc(F)c(F)c4)CC3)cccc2n1` [Example-023, [4-(2,4-Diaminoquinazolin-5-yloxymethyl)piperidin-1-yl]-(3,4-difluorophenyl)methanone], for which the pEC50 was greater than 6.00.

For the compound `Nc1nc(N)c2c(OCC3(S(=O)(=O)c4cccc(Cl)c4)CCNCC3)cccc2n1` [Example-026, 5-[4-(3-Chlorobenzenesulfonyl)piperidin-4-ylmethoxy]quinazoline-2,4-diamine], the negative logarithm of the EC50 (pEC50) is greater than 6.00.

For `Nc1nc(N)c2c(OCC3(S(=O)(=O)c4ccccc4Cl)CCNCC3)cccc2n1` [Example-027, 5-[4-(2-Chlorobenzenesulfonyl)piperidin-4-ylmethoxy]quinazoline-2,4-diamine], the negative-log EC50 (pEC50) is greater than 6.00.

For `Cc1cccc(S(=O)(=O)N2CCC(COc3cccc4nc(N)nc(N)c34)CC2)c1` [Example-032, 5-[1-(Toluene-3-sulfonyl)piperidin-4-ylmethoxy]quinazoline-2,4-diamine], the pEC50 is greater than 6.00.

Consider `Nc1nc(N)c2c(OCC3(S(=O)(=O)c4ccc(F)c(F)c4)CCNCC3)cccc2n1` [Example-035, 5-[4-(3,4-Difluorobenzenesulfonyl)-piperidin-4-ylmethoxy]quinazoline-2,4-diamine], for which the pEC50 was greater than 6.00.

Still in this test, the particulars now being: Mus musculus, Table 4, SMN2 promoter driving β-lactamase, read-out: Promoter Assay EC50 for 2391.003C(P).
`CC(C)(C)OC(=O)N1CCN(c2cccc3nc(N)nc(N)c23)CC1` [Examplc-219, 4-(2,4-Diaminoquinazolin-5-yl)piperazine-1-carboxylic acid tert-butyl ester]: the negative logarithm of the EC50 (pEC50) is 5.30 to 6.00.

The test is the same for the next values; noted with them: Mus musculus, Table 6, SMN2 promoter driving β-lactamase, read-out: Promoter Assay EC50.
On to `Nc1nc(N)c2c(OCC3CC[N+]([O-])(Cc4ccccc4F)CC3)cccc2n1` (centres unmarked) [Examplc-221], for which the negative-log EC50 (pEC50) was 5.30 to 6.00.

The same test, now with this note: Table 1, SMN2 promoter driving β-lactamase, 12 point dose curve, read-out: Promoter Assay EC50.
Take `Nc1nc(N)c2c(OCC3CCN(Cc4cccc5ccccc45)CC3)cccc2n1` [Example-005]: the negative-log EC50 (pEC50) was greater than 6.00.

`Nc1nc(N)c2c(OCC3CCN(S(=O)(=O)c4ccc(Cl)cc4)CC3)cccc2n1` [Example-028]: the pEC50 is greater than 6.00.

Consider `Nc1nc(N)c2c(OCC3CCN(S(=O)(=O)c4cccc5ccccc45)CC3)cccc2n1` [Example-029], for which the pEC50 was greater than 6.00.

Consider `Nc1nc(N)c2c(OCC3CCN(S(=O)(=O)c4ccc5ccccc5c4)CC3)cccc2n1` [Example-030], for which the pEC50 is greater than 6.00.

Take `Cc1ccccc1S(=O)(=O)N1CCC(COc2cccc3nc(N)nc(N)c23)CC1` [Example-031]: the negative logarithm of the EC50 (pEC50) is greater than 6.00.

For the compound `Cc1ccc(S(=O)(=O)N2CCC(COc3cccc4nc(N)nc(N)c34)CC2)cc1` [Example-033], the pEC50 is greater than 6.00.

For the compound `CC(C)(C)OC(=O)N1CCC(COc2cccc3nc(N)nc(N)c23)CC1` [Example-037], the pEC50 is greater than 6.00.

For `Nc1nc(N)c2c(OCC3CCN(C(=O)c4ccc(I)cc4)CC3)cccc2n1` [Example-040], the pEC50 is greater than 6.00.

Take `Nc1nc(N)c2c(OCC3CCN(C(=O)c4ccccc4I)CC3)cccc2n1` [Example-041]: the pEC50 is greater than 6.00.

Consider `Nc1nc(N)c2c(OCC3CCN(Cc4ccc(I)cc4)CC3)cccc2n1` [Example-044], for which the pEC50 is greater than 6.00.

Turning to `COc1ccc(CC(=O)N2CCC(COc3cccc4nc(N)nc(N)c34)CC2)cc1` [Example-045], the pEC50 was 5.30 to 6.00.

As for `Nc1nc(N)c2c(OCC3CCN(C(=O)c4cccc(F)c4)CC3)cccc2n1` [Example-046], the negative-log EC50 (pEC50) is greater than 6.00.

As for `CS(=O)(=O)c1ccc(CN2CCC(COc3cccc4nc(N)nc(N)c34)CC2)cc1` [Example-047], the negative-log EC50 (pEC50) is greater than 6.00.

As to `CC(C)(C)C(=O)N1CCC(COc2cccc3nc(N)nc(N)c23)CC1` [Example-048], the pEC50 was greater than 6.00.

With `CC1CCC(C(=O)N2CCC(COc3cccc4nc(N)nc(N)c34)CC2)CC1` (centres unmarked) [Example-049], the pEC50 was greater than 6.00.

For `Nc1nc(N)c2c(OCC3CCN(C(=O)c4ccc(Cl)nc4)CC3)cccc2n1` [Example-051], the pEC50 was greater than 6.00.

In the case of `Nc1nc(N)c2c(OCC3CCN(C(=O)c4cc(F)ccc4F)CC3)cccc2n1` [Example-052], the pEC50 is greater than 6.00.

As for `Nc1nc(N)c2c(OCC3CCN(C(=O)c4cc(Cl)cc(Cl)c4)CC3)cccc2n1` [Example-054], the pEC50 is greater than 6.00.

`Nc1nc(N)c2c(OCC3CCN(C(=O)c4cccs4)CC3)cccc2n1` [Example-055]: the pEC50 is greater than 6.00.

Consider `COc1ccc(C(=O)N2CCC(COc3cccc4nc(N)nc(N)c34)CC2)cc1` [Example-056], for which the pEC50 is greater than 6.00.

As to `Nc1nc(N)c2c(OCC3CCN(C(=O)c4ccco4)CC3)cccc2n1` [Example-057], the pEC50 is greater than 6.00.

For the compound `Cc1cc(C(=O)N2CCC(COc3cccc4nc(N)nc(N)c34)CC2)no1` [Example-059], the pEC50 was greater than 6.00.

As to `Nc1nc(N)c2c(OCC3CCN(C(=O)c4ccc(Cl)cc4Cl)CC3)cccc2n1` [Example-060], the pEC50 is greater than 6.00.

In the case of `Nc1nc(N)c2c(OCC3CCN(C(=O)c4ccccc4OC(F)(F)F)CC3)cccc2n1` [Example-061], the pEC50 was greater than 6.00.

For `Nc1nc(N)c2c(OCC3CCN(C(=O)c4ccc(F)cc4)CC3)cccc2n1` [Example-062], the pEC50 was greater than 6.00.

Take `Nc1nc(N)c2c(OCC3CCN(C(=O)c4ccc(OC(F)(F)F)cc4)CC3)cccc2n1` [Example-063]: the pEC50 is greater than 6.00.

For `CCc1ccc(C(=O)N2CCC(COc3cccc4nc(N)nc(N)c34)CC2)cc1` [Example-064], the pEC50 was greater than 6.00.

With `Nc1nc(N)c2c(OCC3CCN(C(=O)CSc4ccccc4)CC3)cccc2n1` [Example-070], the pEC50 is greater than 6.00.

With `Nc1nc(N)c2c(OCC3CCN(C(=O)c4ccc(C(F)(F)F)nc4)CC3)cccc2n1` [Example-071], the pEC50 was greater than 6.00.

Turning to `CS(=O)(=O)N1CCC(COc2cccc3nc(N)nc(N)c23)CC1` [Example-072], the pEC50 is greater than 6.00.

Turning to `CC(C)(C)c1ccc(S(=O)(=O)N2CCC(COc3cccc4nc(N)nc(N)c34)CC2)cc1` [Example-073], the pEC50 was greater than 6.00.

As for `Nc1nc(N)c2c(OCC3CCN(S(=O)(=O)c4ccc(Cl)s4)CC3)cccc2n1` [Example-074], the pEC50 is greater than 6.00.

With `Nc1nc(N)c2c(OCC3CCN(S(=O)(=O)c4cccs4)CC3)cccc2n1` [Example-075], the negative logarithm of the EC50 (pEC50) was greater than 6.00.

As for `Cc1noc(C)c1S(=O)(=O)N1CCC(COc2cccc3nc(N)nc(N)c23)CC1` [Example-076], the negative-log EC50 (pEC50) is greater than 6.00.

Regarding `Nc1nc(N)c2c(OCC3CCN(S(=O)(=O)c4cccc(F)c4)CC3)cccc2n1` [Example-077], the pEC50 was greater than 6.00.

For the compound `Nc1nc(N)c2c(OCC3CCN(S(=O)(=O)c4cccc(Cl)c4Cl)CC3)cccc2n1` [Example-078], the pEC50 was greater than 6.00.

With `Cc1ccc(F)cc1S(=O)(=O)N1CCC(COc2cccc3nc(N)nc(N)c23)CC1` [Example-079], the pEC50 is greater than 6.00.

As to `COc1ccc(Cl)cc1S(=O)(=O)N1CCC(COc2cccc3nc(N)nc(N)c23)CC1` [Example-080], the negative logarithm of the EC50 (pEC50) is greater than 6.00.

For the compound `Cc1c(Cl)cccc1S(=O)(=O)N1CCC(COc2cccc3nc(N)nc(N)c23)CC1` [Example-081], the negative logarithm of the EC50 (pEC50) is greater than 6.00.

As to `Nc1nc(N)c2c(OCC3CCN(S(=O)(=O)c4ccc(C(F)(F)F)cc4)CC3)cccc2n1` [Example-082], the pEC50 was greater than 6.00.

In the case of `COc1ccc(Br)cc1S(=O)(=O)N1CCC(COc2cccc3nc(N)nc(N)c23)CC1` [Example-083], the negative-log EC50 (pEC50) is greater than 6.00.

On to `Nc1nc(N)c2c(OCC3CCN(S(=O)(=O)c4ccc(Cl)cc4Cl)CC3)cccc2n1` [Example-084], for which the negative-log EC50 (pEC50) is greater than 6.00.

`Nc1nc(N)c2c(OCC3CCN(S(=O)(=O)c4c(Cl)cccc4Cl)CC3)cccc2n1` [Example-085]: the pEC50 is greater than 6.00.

`CS(=O)(=O)c1ccc(S(=O)(=O)N2CCC(COc3cccc4nc(N)nc(N)c34)CC2)cc1` [Example-086]: the pEC50 was greater than 6.00.
